{
  "source": "paper PMC12495443",
  "about": "“Developing inhibitors of the guanosine triphosphate hydrolysis accelerating activity of Regulator of G protein Signaling-14 [drawing 1]” (The Journal of Biological Chemistry, 2025)",
  "key": {"[1]": {"biological_target": "T1, human RGS14 RGS-box (wild-type) (Homo sapiens, UniProt O43566)", "T1 construct": "human RGS14 RGS-box (aa 46–195 of UniProt O43566); host or cells: E. coli", "T1 sequence (O43566 46-195)": "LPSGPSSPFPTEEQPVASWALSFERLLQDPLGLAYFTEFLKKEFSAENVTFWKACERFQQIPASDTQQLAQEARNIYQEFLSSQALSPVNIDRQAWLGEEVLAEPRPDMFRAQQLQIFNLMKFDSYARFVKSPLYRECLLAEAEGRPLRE", "assay": "Transcreener GDP RGScreen fluorescence polarization assay of RGS14 RGS-box GAP activity on Gαi1(DM)", "assay_type": "biochemical", "in_short": "(§1)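 Steady-state GTP hydrolysis by rate-altered double point-mutant Gαi1 was read by Transcreener GDP fluorescence polarization, with GTP conversion kept below 10% of maximum input. The E. coli-expressed, N-terminal His6-tagged wild-type RGS-boxes were RGS12 aa 695–843 and RGS14 aa 46–195.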"}, "[2]": {"biological_target": "T2, human RGS12 RGS-box (wild-type) (Homo sapiens, UniProt O14924)", "T2 construct": "human RGS12 RGS-box (aa 695–843 of UniProt O14924); host or cells: E. coli", "T2 sequence (O14924 695-843)": "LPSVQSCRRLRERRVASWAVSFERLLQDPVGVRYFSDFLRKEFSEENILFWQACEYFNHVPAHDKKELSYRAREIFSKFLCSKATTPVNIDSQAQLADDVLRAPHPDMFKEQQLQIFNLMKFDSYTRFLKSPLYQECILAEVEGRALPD", "assay": "Transcreener GDP RGScreen fluorescence polarization assay of RGS12 RGS-box GAP activity on Gαi1(DM)", "assay_type": "biochemical", "conditions": "wild-type RGS12 RGS-box GAP activity, Gαi1(DM), read-out: RGS12 pIC50 (converted)", "in_short": "as §1"}},
  "data": [
    {"smiles": "COc1ccc(OCc2nnc3n2N=C(c2ccc(OC)c(OC)c2)CS3)cc1", "note": "[Z55660043, 6-(3,4-dimethoxyphenyl)-3-[(4-methoxy-phenoxy)methyl]-5H-[1,2,4]triazolo[3,4-b][1,3,4]thiadiazine]", "values": [
      {"measurement": "Ratio (RGS14 pIC50 / RGS12 pIC50)", "setting": "[1]; values > 1.0 reflect RGS14 selectivity", "result": 0.95},
      {"measurement": "IC50", "setting": "[1]; wild-type RGS14 RGS-box GAP activity, Gαi1(DM), Transcreener GDP RGScreen, read-out: RGS14 pIC50 (converted)", "result": 2290, "unit": "nM"},
      {"measurement": "IC50", "setting": "[2]", "result": 1200, "unit": "nM"}
    ]}
  ]
}
